Assay results published in ChEMBL document CHEMBL5260858, “Targeting mycobacterial membranes and membrane proteins: Progress and limitations” (Bioorg Med Chem, 2023).
In brackets after ≈: the same amount, converted by molar mass.

Key:
[1] = tested on: Mycobacterium tuberculosis variant bovis; experiment: Antitubercular activity against Mycobacterium bovis assessed as bacterial growth inhibition; type: functional
[2] = tested on: Mycobacterium tuberculosis variant bovis; experiment: Inhibition of mycolic acid biosynthesis in Mycobacterium bovis BCG assessed as decrease in methoxy-mycolic acid in presence of 14C-labeled acetic acid incubated for 60 mins by photo-stimulated luminescence analysis; type: functional, organism-based; details: 1 h
[3] = tested on: Mycobacterium tuberculosis variant bovis; experiment: Inhibition of mycolic acid biosynthesis in Mycobacterium bovis BCG assessed as decrease in keto-mycolic acid in presence of 14C-labeled acetic acid incubated for 60 mins by photo-stimulated luminescence analysis; type: functional, organism-based; details: 1 h
[4] = tested on: Mycobacterium tuberculosis variant bovis; experiment: Antitubercular activity against Mycobacterium bovis BCG infected in mouse J774.A1 cells assessed as reduction in intracellular bacterial load incubated for 6 days; type: functional; details: 144 h, time 6 day
[5] = tested on: Mycobacterium tuberculosis variant bovis; experiment: Antitubercular activity against Mycobacterium bovis BCG assessed as bacterial growth inhibition incubated for 14 days by agar plate method; type: functional; details: 336 h, time 14 day
[6] = tested on: Mycobacterium tuberculosis variant bovis; experiment: Antitubercular activity against Mycobacterium bovis BCG assessed as bacterial growth inhibition incubated for 24 hrs by [14C]-acetate labelling based radiometric analysis; type: functional
[7] = tested on: Mycobacterium tuberculosis variant bovis; experiment: Antitubercular activity against Mycobacterium bovis BCG assessed as bacterial growth inhibition; type: functional
[8] = tested on: Mycobacterium tuberculosis variant bovis; experiment: Antitubercular activity against Mycobacterium bovis BCG assessed as minimum bactericidal concentration for 99.9% activity; type: functional; details: read-out: MBC99.9
[9] = tested on: Mycobacterium tuberculosis variant bovis; experiment: Antitubercular activity against Mycobacterium tuberculosis variant bovis assessed as bacterial growth inhibition; type: functional

## O=[N+]([O-])c1cccc2c1ccn2CCCCC[P+](c1ccccc1)(c1ccccc1)c1ccccc1
[1]
  MIC50: 3 µM

## NNC(=O)c1ccncc1 [ISONIAZID]
[2]
  IC50: 0.036 µg/mL
[3]
  IC50: 0.021 µg/mL

## COC(=O)c1c(NC(=O)c2c(F)c(F)c(F)c(F)c2F)sc2c1CCCCC2
[4]
  MIC: 12.8 µM (≈ 5.37 µg/mL)

## Cc1cc2oc(=O)cc(-c3cccc(N)c3)c2c(C)c1-c1ccc(CN2CCOCC2)cc1
[5]
  MIC: 0.71 µM (≈ 0.313 µg/mL)

## CCc1ccc([C@H]2C[C@@H](C(F)(F)F)n3ncc(C(=O)NCc4ccc5c(c4)OCO5)c3N2)cc1
[6]
  MIC: 0.8 µM (≈ 0.378 µg/mL)

## CCc1ccc([C@H]2C[C@@H](C(F)(F)F)n3ncc(C(=O)NCc4ccc(OC)cc4)c3N2)cc1
[6]
  MIC: 0.3 µM (≈ 0.138 µg/mL)

## COc1nc2ccc(Br)cc2cc1[C@@H](c1ccccc1)[C@@](O)(CCN(C)C)c1cccc2ccccc12 [BEDAQUILINE]
[1]
  MIC: 0.003 µg/mL (≈ 5.4 nM)

## COC(=O)c1c(NC(=O)c2c(F)c(F)c(F)c(F)c2F)sc(C(N)=O)c1C
[4]
  MIC: 6.4 µM (≈ 2.61 µg/mL)

## COc1cccc2ccn(CCCCC[P+](c3ccccc3)(c3ccccc3)c3ccccc3)c12
[1]
  MIC50: 2 µM

## C[C@@]1(COc2ccc(N3CCC(Oc4ccc(OC(F)(F)F)cc4)CC3)cc2)Cn2cc([N+](=O)[O-])nc2O1
[2]
  IC50: 0.63 µg/mL
[3]
  IC50: 0.69 µg/mL

## CCCCCCCCn1cc(CN2CCC3(CC2)OCCCO3)c2ccc(OC)cc21
[7]
  MIC50: 0.3 µM (≈ 0.129 µg/mL)
[8]
  MBC: 1.2 µM (≈ 0.514 µg/mL)

## CCCCCCCCn1cc(CN2CCCCCC2)c2c(F)cccc21
[7]
  MIC50: 0.3 µM (≈ 0.108 µg/mL)
[8]
  MBC: 12 µM (≈ 4.3 µg/mL)

## CCc1nc2ccc(Cl)cn2c1C(=O)NCc1ccc(N2CCC(c3ccc(OC(F)(F)F)cc3)CC2)cc1 [TELACEBEC]
[9]
  MIC: 0.0035 µM (≈ 0.00195 µg/mL)
